Details: Liquid; for mass density: vibrating tube; for viscosity: Stony Brook Scientific falling needle HPHTV-100 viscometer

CCCCCCn1cc[n+](C)c1.F[B-](F)(F)F [1-hexyl-3-methylimidazolium tetrafluoroborate]
Details | mass density [kg/m3] | viscosity [mPa·s]
283.15 K, 100 kPa | 1155.97 | –
283.15 K, 2000 kPa | 1156.84 | –
283.15 K, 4000 kPa | 1157.76 | –
283.15 K, 6000 kPa | 1158.69 | –
283.15 K, 8000 kPa | 1159.61 | –
283.15 K, 10000 kPa | 1160.53 | –
283.15 K, 12000 kPa | 1161.43 | –
283.15 K, 14000 kPa | 1162.34 | –
283.15 K, 20000 kPa | 1165.02 | –
283.15 K, 30000 kPa | 1169.4 | –
283.15 K, 40000 kPa | 1173.6 | –
283.15 K, 50000 kPa | 1177.7 | –
283.15 K, 60000 kPa | 1181.65 | –
285.09 K, 4270 kPa | – | 449.6
285.15 K, 130 kPa | – | 420.5
285.15 K, 1400 kPa | – | 430.2
285.15 K, 3170 kPa | – | 437
285.15 K, 5380 kPa | – | 457.2
285.15 K, 12640 kPa | – | 495.6
285.2 K, 5080 kPa | – | 447.9
285.22 K, 12000 kPa | – | 488.4
285.23 K, 7090 kPa | – | 460.6
285.23 K, 10000 kPa | – | 481.6
285.23 K, 14220 kPa | – | 504.9
285.25 K, 8290 kPa | – | 468.5
288.15 K, 100 kPa | 1152.44 | –
288.15 K, 2000 kPa | 1153.37 | –
288.15 K, 4000 kPa | 1154.32 | –
288.15 K, 6000 kPa | 1155.11 | –
288.15 K, 8000 kPa | 1156.19 | –
288.15 K, 10000 kPa | 1157.11 | –
288.15 K, 12000 kPa | 1158.05 | –
288.15 K, 14000 kPa | 1158.97 | –
288.15 K, 20000 kPa | 1161.68 | –
288.15 K, 30000 kPa | 1166.05 | –
288.15 K, 40000 kPa | 1170.31 | –
288.15 K, 50000 kPa | 1174.45 | –
288.15 K, 60000 kPa | 1178.4 | –
293.15 K, 100 kPa | 1148.92 | –
293.15 K, 2000 kPa | 1149.88 | –
293.15 K, 4000 kPa | 1150.84 | –
293.15 K, 6000 kPa | 1151.81 | –
293.15 K, 8000 kPa | 1152.76 | –
293.15 K, 10000 kPa | 1153.7 | –
293.15 K, 12000 kPa | 1154.65 | –
293.15 K, 14000 kPa | 1155.57 | –
293.15 K, 20000 kPa | 1158.32 | –
293.15 K, 30000 kPa | 1162.74 | –
293.15 K, 40000 kPa | 1167.02 | –
293.15 K, 50000 kPa | 1171.16 | –
293.15 K, 60000 kPa | 1175.18 | –
294.65 K, 14670 kPa | – | 285.1
294.75 K, 8260 kPa | – | 261.3
294.75 K, 10200 kPa | – | 270.5
294.75 K, 12300 kPa | – | 278.6
294.77 K, 6430 kPa | – | 254.4
294.85 K, 140 kPa | – | 238.3
294.85 K, 760 kPa | – | 238.2
294.85 K, 2760 kPa | – | 242.5
294.85 K, 4280 kPa | – | 246.6
294.91 K, 1460 kPa | – | 238.3
298.15 K, 100 kPa | 1145.47 | –
298.15 K, 2000 kPa | 1146.39 | –
298.15 K, 4000 kPa | 1147.43 | –
298.15 K, 6000 kPa | 1148.36 | –
298.15 K, 8000 kPa | 1149.29 | –
298.15 K, 10000 kPa | 1150.27 | –
298.15 K, 12000 kPa | 1151.22 | –
298.15 K, 14000 kPa | 1152.19 | –
298.15 K, 20000 kPa | 1154.94 | –
298.15 K, 30000 kPa | 1159.42 | –
298.15 K, 40000 kPa | 1163.75 | –
298.15 K, 50000 kPa | 1167.96 | –
298.15 K, 60000 kPa | 1172.02 | –
300.25 K, 1630 kPa | – | 179.8
300.39 K, 2690 kPa | – | 180.5
300.42 K, 14380 kPa | – | 210.1
300.49 K, 4140 kPa | – | 184.2
300.61 K, 6190 kPa | – | 187
300.61 K, 12340 kPa | – | 202.5
300.62 K, 8490 kPa | – | 191.3
300.68 K, 10400 kPa | – | 196.1
300.75 K, 1410 kPa | – | 175.2
300.85 K, 120 kPa | – | 168.1
303.15 K, 100 kPa | 1141.99 | –
303.15 K, 2000 kPa | 1142.93 | –
303.15 K, 4000 kPa | 1143.92 | –
303.15 K, 6000 kPa | 1144.93 | –
303.15 K, 8000 kPa | 1145.93 | –
303.15 K, 10000 kPa | 1146.85 | –
303.15 K, 12000 kPa | 1147.82 | –
303.15 K, 14000 kPa | 1148.83 | –
303.15 K, 20000 kPa | 1151.57 | –
303.15 K, 30000 kPa | 1156.18 | –
303.15 K, 40000 kPa | 1160.55 | –
303.15 K, 50000 kPa | 1164.76 | –
303.15 K, 60000 kPa | 1168.87 | –
308.15 K, 100 kPa | 1138.53 | –
308.15 K, 2000 kPa | 1139.5 | –
308.15 K, 4000 kPa | 1140.49 | –
308.15 K, 6000 kPa | 1141.48 | –
308.15 K, 8000 kPa | 1142.48 | –
308.15 K, 10000 kPa | 1143.45 | –
308.15 K, 12000 kPa | 1144.45 | –
308.15 K, 14000 kPa | 1145.41 | –
308.15 K, 20000 kPa | 1148.24 | –
308.15 K, 30000 kPa | 1152.83 | –
308.15 K, 40000 kPa | 1157.26 | –
308.15 K, 50000 kPa | 1161.57 | –
308.15 K, 60000 kPa | 1165.72 | –
308.25 K, 1850 kPa | – | 114.6
308.35 K, 14230 kPa | – | 131.8
308.48 K, 12350 kPa | – | 128.7
308.55 K, 10300 kPa | – | 125.6
308.59 K, 8230 kPa | – | 122.7
308.65 K, 110 kPa | – | 112.3
308.65 K, 800 kPa | – | 113
308.65 K, 1730 kPa | – | 114.4
308.65 K, 2760 kPa | – | 115.1
308.65 K, 4300 kPa | – | 117.5
308.65 K, 6380 kPa | – | 120.2
313.15 K, 100 kPa | 1135.1 | –
313.15 K, 2000 kPa | 1136.08 | –
313.15 K, 4000 kPa | 1137.11 | –
313.15 K, 6000 kPa | 1138.14 | –
313.15 K, 8000 kPa | 1139.15 | –
313.15 K, 10000 kPa | 1140.14 | –
313.15 K, 12000 kPa | 1141.13 | –
313.15 K, 14000 kPa | 1142.09 | –
313.15 K, 20000 kPa | 1144.98 | –
313.15 K, 30000 kPa | 1149.62 | –
313.15 K, 40000 kPa | 1154.1 | –
313.15 K, 50000 kPa | 1158.44 | –
313.15 K, 60000 kPa | 1162.62 | –
318.15 K, 100 kPa | 1131.72 | –
318.15 K, 2000 kPa | 1132.7 | –
318.15 K, 4000 kPa | 1133.74 | –
318.15 K, 6000 kPa | 1134.77 | –
318.15 K, 8000 kPa | 1135.78 | –
318.15 K, 10000 kPa | 1136.79 | –
318.15 K, 12000 kPa | 1137.78 | –
318.15 K, 14000 kPa | 1138.79 | –
318.15 K, 20000 kPa | 1141.71 | –
318.15 K, 30000 kPa | 1146.4 | –
318.15 K, 40000 kPa | 1150.92 | –
318.15 K, 50000 kPa | 1155.3 | –
318.15 K, 60000 kPa | 1159.5 | –
319.85 K, 2700 kPa | – | 70.1
319.89 K, 110 kPa | – | 67.7
319.95 K, 700 kPa | – | 68.1
319.95 K, 4470 kPa | – | 70.7
319.95 K, 6480 kPa | – | 72.9
319.95 K, 14430 kPa | – | 77.8
319.98 K, 3850 kPa | – | 70.5
319.98 K, 12490 kPa | – | 76.1
319.99 K, 8440 kPa | – | 73.7
320.03 K, 1300 kPa | – | 68.2
320.05 K, 2440 kPa | – | 69.2
320.05 K, 10500 kPa | – | 74.9
323.15 K, 100 kPa | 1128.3 | –
323.15 K, 2000 kPa | 1129.31 | –
323.15 K, 4000 kPa | 1130.36 | –
323.15 K, 6000 kPa | 1131.4 | –
323.15 K, 8000 kPa | 1132.43 | –
323.15 K, 10000 kPa | 1133.45 | –
323.15 K, 12000 kPa | 1134.46 | –
323.15 K, 14000 kPa | 1135.46 | –
323.15 K, 20000 kPa | 1138.4 | –
323.15 K, 30000 kPa | 1143.16 | –
323.15 K, 40000 kPa | 1147.2 | –
323.15 K, 50000 kPa | 1152.14 | –
323.15 K, 60000 kPa | 1156.42 | –

Source: the NIST ThermoML archive (doi:10.1016/j.jct.2009.11.014)
